In patent publication US10167247B2, “Solid forms of treprostinil” (United Therapeutics Corporation, priority 2013, dated 2019):

How the values were obtained:
Type in all cases: physicochemical
[1] = Environmental stress (temperature / relative humidity), solid form by XRPD
Procedure: The mesophase treprostinil of FIG. 31 are formed, from top to bottom, from the following solutions: (1) 0.40 water activity slurry with acetone 2 days; (2) DCM slurry 60 to 30° C.; (3) 0.80 water activity slurry with isopropanol 7 days; (4) 1-propanol/water 1:1 v/v slurry ambient temperature; (5) Form B+A+mesophase 50° C. 7 days, (6) Acetonitrile slurry ambient temperature; (7) Form A 50° C. 15 hours; (8) Methanol/ethyl acetate evaporation; (9) Toluene crash precipitation from methyl ethyl ketone.
Solids were stressed in glass vials under various drying and relative humidity (RH) environments for specified times, generally monitoring weight change during stressing. Drying was done via ambient, P2O5, vacuum (ambient and elevated temperatures), and convection oven experiments, for which the only drying condition listed in the tables is the oven temperature. Ambient experiments were conducted by leaving samples exposed in a laboratory fume hood. Specific RH values were achieved by placing the sample inside sealed chambers containing saturated salt solutions or into separate chambers containing P2O5 powder for 0% RH. The salt solutions were selected and prepared based an ASTM standard procedure. For vacuum experiments, vials were covered with nylon filters to prevent potential solid loss. For the elevated temperature experiments, temperature was measured by a NIST-traceable thermometer. […]

[2] = Dynamic vapor sorption (DVS); conditions: for DVS weight loss: 95 to 5% RH
Procedure: DVS data were collected on a VTI SGA-100 Vapor Sorption Analyzer. NaCl and PVP were used as calibration standards. Samples were not dried prior to analysis. Sorption and desorption data were collected over a range from 5 to 95% RH (or 55 to 95% RH for Form B) at 10% RH increments under a nitrogen purge. The equilibrium criterion used for analysis was less than 0.0100% weight change in 5 minutes with a maximum equilibration time of 3 hours. Data were not corrected for the initial moisture content of the samples.

[3] = TG-IR heating, post-TG-IR XRPD; conditions: heated 25-97° C.
Procedure: Thermogravimetric infrared (TG-IR) analysis was performed on a TA Instruments thermogravimetric (TG) analyzer model 2050 interfaced to a Magna-IR 560® Fourier transform infrared (IR) spectrophotometer (Thermo Nicolet) equipped with an Ever-Glo mid/far IR source, a potassium bromide (KBr) beamsplitter, and a mercury cadmium telluride (MCT-A) detector. The IR wavelength verification was performed using polystyrene, and the TG calibration standards were nickel and Alumel™. The sample was placed in a platinum sample pan, and the pan was inserted into the TG furnace. The TG instrument was started first, immediately followed by the FT-IR instrument. The TG instrument was operated under a flow of helium at 90 and 10 cc/min for the purge and balance, respectively. The furnace was heated under helium at a rate of 20° C./minute to a final temperature of 97° C. IR spectra were collected approximately every 16 seconds for approximately 13 minutes. Each IR spectrum represents 16 co-added scans collected at a spectral resolution of 4 cm^−1. Volatiles were identified from a search of the High Resolution Nicolet Vapor Phase spectral library (v. 1990-1994).

[4] = Stability tests of anhydrous treprostinil on standing
Procedure: An anhydrous form of treprostinil has been previously described, e.g., in J. Org. Chem. 2004, 69, 1890-1902. The anhydrous form is not stable at room temperature. […] A larger amount of dimers can form at higher temperatures. However, dimer formation is negligible at 5° C. Therefore, anhydrous treprostinil must be refrigerated for storage and transport. In the past, anhydrous treprostinil had to be refrigerated and shipped with ice packs to maintain low (2° C.-8° C.) temperatures.

SMILES: CCCCC[C@H](O)CC[C@@H]1[C@H]2Cc3cccc(OCC(=O)O)c3C[C@H]2C[C@H]1O [Mesophase treprostinil, 2-((1R,2R,3aS,9aS)-2-hydroxy-1-((S)-3-hydroxyoctyl)-2,3,3a,4,9,9a-hexahydro-1H-cyclopenta[b]naphthalen-5-yloxy)acetic acid]
- Solid form after stress (XRPD) ([1]; 97% RH 12 days): mesophase+weak Form B

SMILES: CCCCC[C@H](O)CC[C@@H]1[C@H]2Cc3cccc(OCC(=O)O)c3C[C@H]2C[C@H]1O [Treprostinil Form C, 2-((1R,2R,3aS,9aS)-2-hydroxy-1-((S)-3-hydroxyoctyl)-2,3,3a,4,9,9a-hexahydro-1H-cyclopenta[b]naphthalen-5-yloxy)acetic acid]
- DVS weight gain ([2]; 5 to 75% RH): 0.2% weight gain 5 to 75% RH
- DVS weight gain ([2]; 75 to 95% RH): 4.6% weight gain 75 to 95% RH
- DVS weight loss [2]: 0.5% weight loss 95 to 5% RH
- post-DVS XRPD (solid form after DVS) ([2]; after sorption/desorption cycle): B + A
- DVS weight loss upon equilibration ([2]; equilibration at 5% RH): 0.1% weight loss upon equilibration at 5% RH

SMILES: CCCCC[C@H](O)CC[C@@H]1[C@H]2Cc3cccc(OCC(=O)O)c3C[C@H]2C[C@H]1O [Treprostinil monohydrate Form A, 2-((1R,2R,3aS,9aS)-2-hydroxy-1-((S)-3-hydroxyoctyl)-2,3,3a,4,9,9a-hexahydro-1H-cyclopenta[b]naphthalen-5-yloxy)acetic acid]
- DVS weight gain ([2]; 5 to 95% RH): 0.7% weight gain 5 to 95% RH
- DVS weight loss [2]: 0.6% weight loss 95 to 5% RH
- Solid form after stress (XRPD) ([1]; 50° C. 15 hours): mesophase
- Post-TG-IR XRPD (solid form after heating) [3]: mesophase

SMILES: CCCCC[C@H](O)CC[C@@H]1[C@H]2Cc3cccc(OCC(=O)O)c3C[C@H]2C[C@H]1O [Treprostinil monohydrate Form B, 2-((1R,2R,3aS,9aS)-2-hydroxy-1-((S)-3-hydroxyoctyl)-2,3,3a,4,9,9a-hexahydro-1H-cyclopenta[b]naphthalen-5-yloxy)acetic acid]
- DVS weight gain ([2]; 55 to 95% RH): 0.4% weight gain 55 to 95% RH
- DVS weight loss [2]: 0.6% weight loss 95 to 5% RH
- DVS weight gain upon equilibration ([2]; equilibration at 55% RH): 0.3% weight gain upon equilibration at 55% RH

SMILES: CCCCC[C@H](O)CC[C@@H]1[C@H]2Cc3cccc(OCC(=O)O)c3C[C@H]2C[C@H]1O [anhydrous treprostinil, 2-((1R,2R,3aS,9aS)-2-hydroxy-1-((S)-3-hydroxyoctyl)-2,3,3a,4,9,9a-hexahydro-1H-cyclopenta[b]naphthalen-5-yloxy)acetic acid]
- Dimer formation ([4]; 5° C.): negligible
- Stability ([4]; 25° C., dimers formed upon standing): not stable
